Earlier results in PMC5643362 (Acta Diabetologica, 2017).

How the values were obtained:
[1] = tested on: dipeptidyl peptidase IV
[2] = tested on: neural endopeptidase

Resistance to dipeptidyl peptidase IV [1]: resistant | Resistance to neural endopeptidase [2]: resistant
Substance: Exendin-4
